Experimental data taken from US5747239A, “Synthetic peptides specific for the detection of antibodies to HCV, diagnosis of HCV infection and preventions thereof as vaccines” (United Biomedical, Inc., priority 1994, dated 1998).

Experiments:
Assay type in all cases: binding, human
[1] = system: antibodies to HCV; assay: Envelope/NS-1 peptide ELISA, anti-HCV positive plasmapheresis donors with elevated ALT (Panel III); settings: for % Relative Immunoreactivity: envelope/NS-1 peptides, Panel III (17 samples), peptide 254B as a standard
Procedure: To select a panel of samples with reactivity to peptides from the envelope/NS-1 region, 97 such samples from anti-HCV positive plasmapheresis donors with elevated ALT levels were tested with peptide 254B. […] 17 samples with the greatest reactivity with peptide 254B were chosen to form a third panel (Panel III) to screen for the immunoreactivity of the other 20 peptides from the envelope/NS-1 region. The individual absorbance values of each of the 17 samples on the four peptides with the greatest reactivity, i.e. 255C (pep7), 254B (pep8), 247B (pep9), and 246D (pep10), are listed in Table 8b.

[2] = system: antibodies to HCV; assay: Envelope/NS-1 peptide ELISA, samples nonreactive on HCV core (VIIIE) and NS-4 (IIH) peptides
Procedure: In addition to screening on Panel III samples, the envelope/NS-1 peptides were also tested against samples from plasmapheresis donors who had elevated ALT levels but were non-reactive on the HCV from the core (e.g. peptide VIIIE) and NS-4 (e.g. peptide IIH) regions screening EIA. Six of these samples, which may represent early seroconversion samples, were reactive on one or more envelope/NS-1 peptide (Table 8d). The absorbance values on these HCV EIA nonreactive samples are lower than the values found for Panel III samples. In the case of Pep7 and Pep10, their shorter segments, 225B and 246C, respectively, gave greater immunoreactivity, in contrast to the performance on Panel III.

[3] = system: antibodies to HCV; assay: Peptide ELISA for relative immunoreactivity, 8 member HCV serum panel (Panel I); design: relative immunoreactivity value: concentration or dose not given beside the values; settings: for % IP: NS-5 peptides (Table 12), pep11 as a standard
Procedure: As an example to illustrate how relative (%) immunoreactivity for HCV synthetic peptides is measured, wells of 96-well plates are coated for 1 hour at 37° C., with each of the following peptides: IIH, V, VIIIE and pep11 at 5 ug/mL at 100 uL per well in 10 mM NaHCO3 buffer, pH 9.5. The peptide coated wells were then incubated with 250 uL of 3% by weight of gelatin in PBS in 37° C. for 1 hour to block non-specificprotein binding sites, followed by three washes with PBS containing 0.05% by volume of TWEEN 20 and then dried. The test specimens containing a panel of eight well-characterized HCV antibody positive patient sera were diluted with PBS containing 20% by volume normal goat serum, 1% by weight gelatin and 0.05% by volume TWEEN 20 at dilutions of 1:20 volume to volume, respectively. 200 uL of the diluted specimens were added to each of the wells and allowed to react for 15 minutes at 37° C.
The wells were then washed six times with 0.05% by volume TWEEN 20 in PBS in order to remove unbound antibodies. Horseradish peroxidase conjugated goat anti-human IgG was used as a second antibody tracer to bind with the HCV antibody-peptide antigen complex formed in positive wells. 100 uL of peroxidase labeled goat anti-human IgG at a dilution of 1:1800 in 1% by volume normal goat serum, 0.05% by volume TWEEN 20 in PBS was added to each well and incubated at 37° C. for another 15 minutes.
The wells were washed six times with 0.05% by volume TWEEN 20 PBS to remove unbound antibody and reacted with 100 uL of the substrate mixture containing 0.04% by weight orthophenylenediamine (OPD) and 0.12% by volume hydrogen peroxide in sodium citrate buffer, pH 5.0.
This substrate mixture was used to detect the peroxidase label by forming a colored product. Reactions were stopped by the addition of 100 uL of 1.0M H2 SO4 and the A492 mm measured. Results of relative immunoreactivity for each of the peptides obtained from this study are shown in Table A using peptide II H as the reference.

[4] = system: antibodies to HCV; assay: NS-5 peptide ELISA, group of 5 HCV positive sera; settings: for % Relative Immunoreactivity: NS-5 peptides, 5 HCV positive sera, Pep5 = 100
Procedure: Wells of 96-well plates were coated for 1 hour at 37° C. with each of the three peptides derived from the NS-5 region of HCV (designated as pep4, pep5 and pep6).

[5] = system: antibodies to HCV; assay: EIA of pep3 after different extraction conditions following HF cleavage; settings: for % Decrease: Pep3' versus Pep3
Excerpt: Peptide extraction conditions after HF cleavage were altered to test for their effect on peptide immunopotency after HF cleavage. Pep3 (or 279A) was extracted with acetic acid at pH 2, whereas pep3' was extracted with ammonium bicarbonate at pH 8.

[6] = system: antibodies to HCV; assay: EIA of NS-3 peptides before and after pH adjustment
Procedure: Peptides dissolved at 1 mg/mL in H2 O, pH 4, were titrated to pH 11 by addition of diluted NaOH. After 5 min at pH 11, the pH of the peptide solution was brought down to 7.0 using diluted HCl. Immunoreactivity of the peptides thus treated was compared with reactivity prior to pH adjustment (Table 4E). Two-to three-fold increases in A492 nm were seen. Some previously non-reactive serum samples were able to react with pH adjusted peptides. For instance, serum sample 1, which is non-reactive to 261C, has an absorbance of 1401 mA when tested with the corresponding pH adjusted peptide.

[7] = system: antibodies to HCV; assay: Peptide ELISA for relative immunoreactivity, 8 member HCV serum panel (Panel I); settings: NS-3 peptides (Tables 4B-4D), relative to pep3 (279A)
[8] = system: antibodies to peptide VIIIE; assay: Presence of antibodies to peptide VIIIE in sera
[9] = sample 1 (first line, number not given)
[10] = serum sample 1, Ctrl (prior to pH adjustment)
[11] = serum sample 1, pH adj (pH 11 for 5 min, then 7.0)

Molecule: CLTVPASAYQVRNSTGLYHVTNDCPNSSIVYEAHDAILHTPGCVPCVREGNVSRC [255C]
- Absorbance ([1]; Panel III sample 2): 0.017
- Absorbance ([1]; Panel III sample 3): 0.235
- Absorbance ([1]; Panel III sample 4): 0.066
- Absorbance ([1]; Panel III sample 5): 0.711
- Absorbance ([1]; Panel III sample 6): 0.106
- Absorbance ([1]; Panel III sample 7): 0.784
- Absorbance ([1]; Panel III sample 8): 0.037
- Absorbance ([1]; Panel III sample 9): 0.019
- Absorbance ([1]; Panel III sample 10): 0.313
- Absorbance ([1]; Panel III sample 11): 0.035
- Absorbance ([1]; Panel III sample 14): 0.047
- Absorbance ([1]; Panel III sample 15): 0.012
- Absorbance ([1]; Panel III sample 16): 0.064
- Absorbance ([1]; Panel III sample 17): 0.077
- % Relative Immunoreactivity [1]: 51.4%
- Absorbance [2, 9]: 0.098
- Absorbance ([2]; sample 2): 0.346
- Absorbance ([2]; sample 3): 0.300
- Absorbance ([2]; sample 4): 0.021
- Absorbance ([2]; sample 5): 0.231
- Absorbance ([2]; sample 6): 0.017

Molecule: DAELIEANLLWRQEMGGNITRVESENKVVILDSFDPLVAEEDER [Pep5]
- % IP ([3]; Panel I): 47.6%
- % Relative Immunoreactivity [4]: 100.0%
- EIA reading per sample ([4]; Sample No. 1): 2.942
- EIA reading per sample ([4]; Sample No. 2): 0.370
- EIA reading per sample ([4]; Sample No. 3): 0.616
- EIA reading per sample ([4]; Sample No. 4): 1.316
- EIA reading per sample ([4]; Sample No. 5): 1.783

Molecule: DPSHITAEAAGRRLARGSPPSVASSSASQLSAPSLKATCTANHDSP [Pep4]
- % IP ([3]; Panel I): 17.1%
- % Relative Immunoreactivity [4]: 28.6%
- EIA reading per sample ([4]; Sample No. 1): 0.468
- EIA reading per sample ([4]; Sample No. 2): 0.659
- EIA reading per sample ([4]; Sample No. 3): 0.675
- EIA reading per sample ([4]; Sample No. 4): 0.063
- EIA reading per sample ([4]; Sample No. 5): 0.144

Molecule: INSTALNCNESLNTGWLAGLIYQHKFNSSGCPERLASC [246C]
- % Relative Immunoreactivity [1]: 97.6%
- Absorbance [2, 9]: 0.240
- Absorbance ([2]; sample 2): 0.015
- Absorbance ([2]; sample 3): 0.023
- Absorbance ([2]; sample 4): 0.046
- Absorbance ([2]; sample 5): 0.009

Molecule: Pep3': pep3 (279A) sequence extracted with ammonium bicarbonate at pH 8 after HF cleavage (GCSGGAYDIIICDECHSTDATSILGIGTVLDQAETAG)
- share of the panel reactive ([3]; Panel I): half of the panel is reactive
- relative immunoreactivity value ([3]; Panel I, compared with peptide VIIIE): 23.9%
- absorbances of some additional reactive samples ([3]; additional reactive samples): > 2000 mA
- A492 nm (mA) by EIA ([5]; NRC: Negative Control): 1 mA
- % Decrease ([5]; SRC): 77.6%
- % Decrease ([5]; WRC): 89.6%
- % Decrease ([5]; sample #1): 78.8%
- % Decrease ([5]; sample #2): 90.0%
- % Decrease ([5]; sample #3): 91.5%
- % Decrease ([5]; sample #4): 99.3%
- % Decrease ([5]; sample #5): 88.0%

Molecule: SVTVPHPNIEEVALSTTGEIPFYGKAIPLEVIKGGRHLIFCHSKKKCDEL [261C]
- relative immunopotency ([6]; after pH adjustment, compared with the standard pep3 (279A)): 68.5%
- A492 nm (mA) by EIA [6, 10]: 6 mA
- A492 nm (mA) by EIA [6, 11]: 1401 mA
- A492 nm (mA) by EIA ([6]; serum sample 2, Ctrl): 5 mA
- A492 nm (mA) by EIA ([6]; serum sample 2, pH adj): 499 mA
- A492 nm (mA) by EIA ([6]; serum sample 3, Ctrl): 24 mA
- A492 nm (mA) by EIA ([6]; serum sample 3, pH adj): 175 mA
- A492 nm (mA) by EIA ([6]; serum sample 4, Ctrl): 27 mA
- A492 nm (mA) by EIA ([6]; serum sample 4, pH adj): 351 mA
- % Relative Immunoreactivity [7]: 3.2%

Molecule: VRNSTGLYHVTNDCPNSSIVYEAHDAILHTPGCPCVREGNVSRC [255B]
- % Relative Immunoreactivity [1]: 18.7%
- Absorbance ([2]; sample 4): 0.021
- Absorbance ([2]; sample 6): 0.012

Molecule: WHINSTALNCNESLNTGWLAGLIYQHKFNSSGCPERLASC [246D]
- Absorbance ([1]; Panel III sample 1): 1.085
- Absorbance ([1]; Panel III sample 2): 0.068
- Absorbance ([1]; Panel III sample 3): 0.090
- Absorbance ([1]; Panel III sample 5): 0.077
- Absorbance ([1]; Panel III sample 9): 0.334
- Absorbance ([1]; Panel III sample 10): 1.488
- Absorbance ([1]; Panel III sample 11): 0.045
- Absorbance ([1]; Panel III sample 12): 0.408
- Absorbance ([1]; Panel III sample 13): 0.451
- Absorbance ([1]; Panel III sample 14): 0.037
- Absorbance ([1]; Panel III sample 16): 0.810
- Absorbance ([1]; Panel III sample 17): 0.111
- % Relative Immunoreactivity [1]: 98.6%
- Absorbance [2, 9]: 0.068
- Absorbance ([2]; sample 2): 0.028
- Absorbance ([2]; sample 3): 0.029
- Absorbance ([2]; sample 4): 0.049
- Absorbance ([2]; sample 5): 0.009
- Absorbance ([2]; sample 6): 0.102

B1: STIPKPQRKTKRNTNRRPQDVKFPGGGQIVGGVYLLPRRGPRLGVRATRKTSERSQPRGRR (peptide)
peptide: STIPKPQRKTKRNTNRRPQDVKFPGGGQIVGGVYLLPRRGPRLGVRATRKTSERSQPRGRR
- A492 nm ([3]; Panel I serum No. 1, peptide coated at 5 ug/mL, serum 1:20): 2.745
- A492 nm ([3]; Panel I serum No. 2): 2.208
- A492 nm ([3]; Panel I serum No. 3): 2.468
- A492 nm ([3]; Panel I serum No. 4): 3.032
- A492 nm ([3]; Panel I serum No. 5): 0.054
- A492 nm ([3]; Panel I serum No. 6): 2.108
- A492 nm ([3]; Panel I serum No. 7): 0.730
- A492 nm ([3]; Panel I serum No. 8): 3.006
- samples of the HCV serum panel that reacted ([3]; Panel I, 8 samples): 7 out of 8
- % Relative Immunoreactivity ([3]; Panel I, peptide IIH as the reference): 98%
- % Relative Immunoreactivity ([3]; capsid peptides, Panel I, relative to VIIIE, coated at 5, 1 and 0.2 μg/mL): 100.0%
- A492 nm Total ([3]; sum over Panel I No. 1 to 8): 16.351
- antibodies to the peptide present in ([8]; HBsAg positive individuals): 15-20%
- antibodies to the peptide present in ([8]; normal controls): 1-2%

B2: LVLNPSVAATLGFGAYMSKAHGIDPNIRTGVRTITTGSPITYSTYGKFLADGGCSGGAYDIIICDECHS (peptide)
chain: LVLNPSVAATLGFGAYMSKAHGIDPNIRTGVRTITTGSPITYSTYGKFLADGGCSGGAYDIIICDECHS
- A492 nm (mA) by EIA [6, 10]: 210 mA
- A492 nm (mA) by EIA [6, 11]: 591 mA
- A492 nm (mA) by EIA ([6]; serum sample 2, Ctrl): 37 mA
- A492 nm (mA) by EIA ([6]; serum sample 2, pH adj): 159 mA
- A492 nm (mA) by EIA ([6]; serum sample 3, Ctrl): 0 mA
- A492 nm (mA) by EIA ([6]; serum sample 3, pH adj): 217 mA
- A492 nm (mA) by EIA ([6]; serum sample 4, Ctrl): 124 mA
- A492 nm (mA) by EIA ([6]; serum sample 4, pH adj): 311 mA
- % Relative Immunoreactivity [7]: 11.1%

B3: TVLDQAETAGARLVVLATATPPGSVTVPHPNIEEVALSTTGEIPFYGKAIPLEVIKGGRHLIFCHSKKKCDEL (peptide)
chain: TVLDQAETAGARLVVLATATPPGSVTVPHPNIEEVALSTTGEIPFYGKAIPLEVIKGGRHLIFCHSKKKCDEL
- % Relative Immunoreactivity [7]: 15.8%
